Test results reported in ChEMBL document CHEMBL5365451, “Discovery of CVN417, a Novel Brain-Penetrant α6-Containing Nicotinic Receptor Antagonist for the Modulation of Motor Dysfunction” (J Med Chem, 2023).

Tests used:
[1] = tested on: Rattus norvegicus; experiment: Protection against tacrine-induced Sprague-Dawley rat tremulous jaw model assessed as decrease in tremor jaw movement at 25 mg/kg, po pretreated with compound for 90 mins followed by tacrine addition and measured after 5 mins; format: functional; parameters: scale not given: the % may be the effect or the level left; conditions: time 95 min, 1.583 h
[2] = Metabolic stability in human liver microsome assessed as clearance at 10 uM incubated upto 2 hrs by LC-MS/MS analysis; format: ADME; conditions: liver microsomes, read-out: CLH
[3] = Metabolic stability in rat liver microsome assessed as clearance at 10 uM incubated upto 2 hrs by LC-MS/MS analysis; format: ADME; conditions: liver microsomes, read-out: CLH
[4] = Antagonist activity at human alpha6-alpha3/beta2/beta3 V273S mutant nAChR expressed in HEK293 cells assessed as nicotine-induced intracellular calcium release incubated for 15 mins by FLIPR analysis; format: cell-based; conditions: HEK293, 0.25 h
[5] = Drug exposure in Sprague-Dawley rat brain at 3 mg/kg, po measured for 2 hrs by LC-MS/MS analysis; format: ADME, organism-based; conditions: read-out: Drug uptake
[6] = Oral bioavailability in Sprague-Dawley rat 3 mg/kg by LC-MS/MS analysis; format: ADME, organism-based; conditions: in vivo
[7] = Volume of distribution at steady state in Sprague-Dawley rat at 0.5 mg/kg, iv by LC-MS/MS analysis; format: ADME, organism-based; conditions: in vivo, read-out: Vdss
[8] = Intrinsic clearance in Sprague-Dawley rat at 0.5 mg/kg, iv by LC-MS/MS analysis; format: ADME, organism-based; conditions: in vivo
[9] = target: Neuronal acetylcholine receptor; alpha3/beta4 (Homo sapiens, UniProt P30926+P32297); experiment: Antagonist activity at human alpha3/beta4 nAChR expressed in HEK293 cells assessed as nicotine-induced intracellular calcium release incubated for 15 mins by FLIPR analysis; format: cell-based
[10] = target: Neuronal acetylcholine receptor; alpha4/beta2 (Homo sapiens, UniProt P17787+P43681); experiment: Antagonist activity at human alpha4/beta2 nAChR expressed in HEK293 cells assessed as nicotine-induced intracellular calcium release incubated for 15 mins by FLIPR analysis; format: cell-based
[11] = Metabolic stability in rat liver microsome assessed as clearance preincubated for 60 mins followed by NADPH addition and measured after 60 mins by LC-MS/MS analysis; format: ADME; conditions: liver microsomes, time 120 min, read-out: CLH
[12] = Metabolic stability in human liver microsome assessed as clearance preincubated for 60 mins followed by NADPH addition and measured after 60 mins by LC-MS/MS analysis; format: ADME; conditions: liver microsomes, time 120 min, read-out: CLH

Neuronal acetylcholine receptor; alpha4/beta2, sequence (P17787 whole entry): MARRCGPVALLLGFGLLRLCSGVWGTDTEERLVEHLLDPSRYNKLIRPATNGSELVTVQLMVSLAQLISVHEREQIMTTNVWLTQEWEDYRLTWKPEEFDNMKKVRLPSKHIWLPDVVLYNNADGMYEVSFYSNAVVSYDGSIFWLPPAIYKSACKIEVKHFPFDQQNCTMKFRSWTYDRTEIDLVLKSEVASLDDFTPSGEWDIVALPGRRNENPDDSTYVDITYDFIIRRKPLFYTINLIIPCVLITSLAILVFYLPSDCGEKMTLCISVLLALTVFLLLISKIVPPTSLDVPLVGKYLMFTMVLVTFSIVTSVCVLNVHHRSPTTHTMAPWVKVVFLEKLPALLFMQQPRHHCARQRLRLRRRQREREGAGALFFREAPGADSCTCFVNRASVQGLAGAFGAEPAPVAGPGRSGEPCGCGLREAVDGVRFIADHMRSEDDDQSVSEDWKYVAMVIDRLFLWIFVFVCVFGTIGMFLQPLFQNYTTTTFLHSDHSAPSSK
Neuronal acetylcholine receptor; alpha4/beta2, sequence (P43681 whole entry): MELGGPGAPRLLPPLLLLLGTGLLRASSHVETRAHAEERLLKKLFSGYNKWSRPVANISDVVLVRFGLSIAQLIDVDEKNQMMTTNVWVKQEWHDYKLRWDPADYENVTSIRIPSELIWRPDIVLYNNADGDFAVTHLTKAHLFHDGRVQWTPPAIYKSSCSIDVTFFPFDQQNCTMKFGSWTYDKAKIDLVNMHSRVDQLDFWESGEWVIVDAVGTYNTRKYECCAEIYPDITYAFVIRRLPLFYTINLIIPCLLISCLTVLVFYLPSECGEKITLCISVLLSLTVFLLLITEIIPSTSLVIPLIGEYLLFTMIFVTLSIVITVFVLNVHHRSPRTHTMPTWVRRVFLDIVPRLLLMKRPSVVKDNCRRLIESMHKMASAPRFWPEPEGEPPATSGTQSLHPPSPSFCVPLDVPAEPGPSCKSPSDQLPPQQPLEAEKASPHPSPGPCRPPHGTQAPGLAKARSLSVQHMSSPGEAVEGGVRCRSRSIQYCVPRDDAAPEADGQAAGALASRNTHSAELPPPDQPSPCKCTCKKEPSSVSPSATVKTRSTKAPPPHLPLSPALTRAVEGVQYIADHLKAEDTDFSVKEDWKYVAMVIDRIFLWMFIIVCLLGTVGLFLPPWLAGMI
Neuronal acetylcholine receptor; alpha3/beta4, sequence (P30926 whole entry): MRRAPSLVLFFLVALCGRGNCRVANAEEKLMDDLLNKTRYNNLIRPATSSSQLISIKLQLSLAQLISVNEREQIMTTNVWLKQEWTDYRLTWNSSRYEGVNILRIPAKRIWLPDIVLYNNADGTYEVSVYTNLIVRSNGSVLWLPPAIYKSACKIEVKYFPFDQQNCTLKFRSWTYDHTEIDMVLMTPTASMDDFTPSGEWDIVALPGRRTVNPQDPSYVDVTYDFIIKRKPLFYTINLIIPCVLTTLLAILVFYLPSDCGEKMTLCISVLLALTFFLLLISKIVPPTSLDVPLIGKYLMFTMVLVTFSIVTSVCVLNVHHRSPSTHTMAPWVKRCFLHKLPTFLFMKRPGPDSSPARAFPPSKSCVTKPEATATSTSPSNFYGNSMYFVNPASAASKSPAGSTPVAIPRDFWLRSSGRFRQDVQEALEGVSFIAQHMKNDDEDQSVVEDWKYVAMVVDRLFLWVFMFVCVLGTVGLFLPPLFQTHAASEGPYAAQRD
Neuronal acetylcholine receptor; alpha3/beta4, sequence (P32297 whole entry): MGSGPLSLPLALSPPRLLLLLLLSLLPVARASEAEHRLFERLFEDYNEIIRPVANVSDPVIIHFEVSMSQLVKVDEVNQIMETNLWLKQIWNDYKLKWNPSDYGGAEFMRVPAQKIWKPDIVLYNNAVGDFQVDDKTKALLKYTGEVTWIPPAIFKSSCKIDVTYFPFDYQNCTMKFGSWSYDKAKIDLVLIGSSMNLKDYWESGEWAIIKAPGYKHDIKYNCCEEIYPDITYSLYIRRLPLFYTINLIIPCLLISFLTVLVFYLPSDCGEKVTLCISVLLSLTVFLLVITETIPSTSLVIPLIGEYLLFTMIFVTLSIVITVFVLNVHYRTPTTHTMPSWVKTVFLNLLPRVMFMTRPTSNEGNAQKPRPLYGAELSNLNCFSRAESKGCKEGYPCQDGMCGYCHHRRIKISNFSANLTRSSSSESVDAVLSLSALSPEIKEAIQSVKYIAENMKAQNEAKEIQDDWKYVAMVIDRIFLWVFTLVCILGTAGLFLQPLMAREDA

| Structure (SMILES) | microsomal CLint at 10 µM [2] | microsomal CLint at 10 µM [3] | IC50 [4] | concentration at 2 h [5] | bioavailability [6] | Vd [7] | CL [8] | IC50 [9] | IC50 [10] | microsomal CLint [11] | microsomal CLint [12] | Activity [1] |
| --- | --- | --- | --- | --- | --- | --- | --- | --- | --- | --- | --- | --- |
| CCCN(CCC)CCc1cccc2c1CC(=O)N2 [ROPINIROLE] | – | – | – | – | – | – | – | – | – | – | – | 17.5% |
| COc1ccc(-c2cc(C(=O)N[C@@H]3CN(C)CCC3(F)F)nn2C)c(Cl)c1 | 61.3 µL/min/mg | < 6.4 µL/min/mg | 94 nM | – | – | – | – | – | – | – | – | – |
| CN1CCC(NC(=O)c2cc(-c3ccc(C(F)(F)F)cc3)n(C)n2)CC1 | – | – | 139 nM | 2970 nM | 70.1% | 25.7 L/kg | 41.5 mL/min/kg | 4960 nM | 1040 nM | – | – | – |

The next lines start with results.

| microsomal CLint at 10 µM [2] | microsomal CLint at 10 µM [3] | IC50 [4] | concentration at 2 h [5] | bioavailability [6] | Vd [7] | CL [8] | IC50 [9] | IC50 [10] | microsomal CLint [11] | microsomal CLint [12] | Structure (SMILES) | Activity [1] |
| --- | --- | --- | --- | --- | --- | --- | --- | --- | --- | --- | --- | --- |
| – | – | 93 nM | 1090 nM | 17.3% | 13 L/kg | 40.5 mL/min/kg | 422 nM | 3730 nM | 2.5 µL/min/mg | 9.6 µL/min/mg | CN1CCC[C@H](NC(=O)c2cc(-c3ccc(C(F)(F)F)cc3)n(C)n2)C1 | – |
| 0.7 µL/min/mg | 11 µL/min/mg | 89 nM | – | – | – | – | – | – | – | – | [2H]C([2H])([2H])Oc1ccc(-c2cc(C(=O)N[C@H]3CCCN(C([2H])([2H])[2H])C3)nn2C([2H])([2H])[2H])c(Cl)c1 | – |
